What was measured:
[1] = biological target: Serine/threonine-protein kinase PLK2 (Homo sapiens, UniProt Q9NYY3); conditions: at 10 µM
[2] = biological target: T1, Inhibitor of nuclear factor kappa-B kinase subunit beta (Homo sapiens) (UniProt O14920); assay: Selectivity interaction (KinomeScan (DiscoverX)) EUB0001049a IKBKB; conditions: at 1 µM
T1 sequence (whole entry): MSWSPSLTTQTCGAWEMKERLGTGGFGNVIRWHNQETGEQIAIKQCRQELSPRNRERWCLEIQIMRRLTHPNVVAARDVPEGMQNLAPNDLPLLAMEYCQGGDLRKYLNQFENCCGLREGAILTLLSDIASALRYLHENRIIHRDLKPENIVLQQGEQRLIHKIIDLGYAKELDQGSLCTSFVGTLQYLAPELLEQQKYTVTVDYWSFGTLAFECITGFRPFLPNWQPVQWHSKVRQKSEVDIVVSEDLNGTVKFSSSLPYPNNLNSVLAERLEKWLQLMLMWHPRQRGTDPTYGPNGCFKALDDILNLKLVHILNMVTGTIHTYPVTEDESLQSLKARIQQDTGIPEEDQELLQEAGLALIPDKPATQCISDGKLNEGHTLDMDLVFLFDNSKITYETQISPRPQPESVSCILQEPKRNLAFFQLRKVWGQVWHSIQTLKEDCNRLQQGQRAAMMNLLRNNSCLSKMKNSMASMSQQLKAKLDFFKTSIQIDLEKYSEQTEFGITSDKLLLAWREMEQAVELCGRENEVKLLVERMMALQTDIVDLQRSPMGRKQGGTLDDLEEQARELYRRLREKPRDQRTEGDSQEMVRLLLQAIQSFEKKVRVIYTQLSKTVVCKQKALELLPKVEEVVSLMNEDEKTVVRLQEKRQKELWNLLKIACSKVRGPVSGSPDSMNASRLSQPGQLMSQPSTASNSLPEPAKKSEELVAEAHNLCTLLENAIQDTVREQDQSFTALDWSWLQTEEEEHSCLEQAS

[3] = biological target: Tyrosine-protein kinase Fyn (Homo sapiens) (UniProt P06241); assay: Selectivity interaction (Millipore kinase profiler) EUB0000124b FYN; conditions: at 10 µM
[4] = biological target: T2, Protein kinase C epsilon type (Homo sapiens) (UniProt Q02156); assay: Selectivity interaction (Millipore kinase profiler) EUB0000124b PRKCE; conditions: at 10 µM
T2 sequence (whole entry): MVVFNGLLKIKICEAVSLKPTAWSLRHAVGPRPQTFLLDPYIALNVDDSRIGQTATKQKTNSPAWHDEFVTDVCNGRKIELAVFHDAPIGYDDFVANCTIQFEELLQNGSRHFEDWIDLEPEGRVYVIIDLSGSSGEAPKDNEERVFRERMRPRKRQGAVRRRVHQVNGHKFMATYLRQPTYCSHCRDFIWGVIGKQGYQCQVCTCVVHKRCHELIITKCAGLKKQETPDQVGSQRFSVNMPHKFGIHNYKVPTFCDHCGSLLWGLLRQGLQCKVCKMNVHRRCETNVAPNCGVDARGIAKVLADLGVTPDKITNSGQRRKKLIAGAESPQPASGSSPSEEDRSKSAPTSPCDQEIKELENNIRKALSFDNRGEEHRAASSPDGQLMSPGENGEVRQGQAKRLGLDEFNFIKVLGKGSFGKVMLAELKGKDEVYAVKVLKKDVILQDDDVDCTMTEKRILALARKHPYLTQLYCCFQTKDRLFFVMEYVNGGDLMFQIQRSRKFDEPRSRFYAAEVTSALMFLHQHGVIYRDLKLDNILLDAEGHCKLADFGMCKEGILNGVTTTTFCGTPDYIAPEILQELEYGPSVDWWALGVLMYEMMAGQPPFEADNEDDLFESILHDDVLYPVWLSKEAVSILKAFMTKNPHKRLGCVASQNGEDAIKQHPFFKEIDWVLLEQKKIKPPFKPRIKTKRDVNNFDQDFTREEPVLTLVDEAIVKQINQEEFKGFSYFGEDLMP

[5] = biological target: T3, Serine/threonine-protein kinase 3 (Homo sapiens) (UniProt Q13188); assay: Selectivity interaction (SelectScreen profiling (Invitrogen)) EUB0000607a STK3; conditions: at 2 µM
T3 sequence (whole entry): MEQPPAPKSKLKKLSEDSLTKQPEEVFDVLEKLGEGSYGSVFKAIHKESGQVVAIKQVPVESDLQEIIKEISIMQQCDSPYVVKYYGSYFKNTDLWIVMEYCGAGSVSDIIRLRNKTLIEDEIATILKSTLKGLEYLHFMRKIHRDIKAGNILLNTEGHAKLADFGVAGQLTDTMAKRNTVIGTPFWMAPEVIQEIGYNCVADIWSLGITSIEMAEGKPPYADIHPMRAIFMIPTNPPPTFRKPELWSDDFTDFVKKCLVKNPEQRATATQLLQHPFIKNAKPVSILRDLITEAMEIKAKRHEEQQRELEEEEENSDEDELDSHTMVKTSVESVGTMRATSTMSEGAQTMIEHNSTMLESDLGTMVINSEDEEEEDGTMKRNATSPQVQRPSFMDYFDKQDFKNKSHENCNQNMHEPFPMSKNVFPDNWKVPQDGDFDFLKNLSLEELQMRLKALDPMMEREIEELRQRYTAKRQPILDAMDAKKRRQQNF

PXR (NR1I2) = PXR (NR1I2) (Homo sapiens, UniProt O75469); assay: Selectivity interaction (Panel of kinases, GPCRs, ion channels and transporters (enzymatic assay)) EUB0000266bCl NR1I2
[6] = biological target: T4, Serine/threonine-protein kinase MAK (Homo sapiens) (UniProt P20794); assay: Selectivity interaction (KinomeScan (DiscoverX)) EUB0000655a MAK; conditions: at 10 µM
T4 sequence (whole entry): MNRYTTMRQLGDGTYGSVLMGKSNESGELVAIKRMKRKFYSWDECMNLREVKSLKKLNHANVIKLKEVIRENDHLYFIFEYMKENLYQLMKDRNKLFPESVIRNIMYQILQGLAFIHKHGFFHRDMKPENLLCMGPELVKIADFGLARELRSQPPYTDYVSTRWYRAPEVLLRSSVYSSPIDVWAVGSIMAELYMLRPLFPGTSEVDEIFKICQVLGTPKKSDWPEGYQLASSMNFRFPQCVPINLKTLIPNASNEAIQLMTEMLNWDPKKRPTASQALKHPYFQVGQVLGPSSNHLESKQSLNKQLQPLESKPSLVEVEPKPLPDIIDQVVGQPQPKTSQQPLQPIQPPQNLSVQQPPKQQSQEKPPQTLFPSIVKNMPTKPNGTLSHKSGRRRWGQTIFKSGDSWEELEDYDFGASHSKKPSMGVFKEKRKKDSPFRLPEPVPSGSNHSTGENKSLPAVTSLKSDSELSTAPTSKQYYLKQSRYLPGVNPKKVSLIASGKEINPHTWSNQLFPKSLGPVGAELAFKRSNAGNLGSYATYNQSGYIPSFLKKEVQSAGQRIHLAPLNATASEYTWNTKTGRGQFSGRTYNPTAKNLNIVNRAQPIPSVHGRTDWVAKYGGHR

[7] = biological target: LIM domain kinase 1 (Homo sapiens) (UniProt P53667); conditions: at 10 µM
LIM domain kinase 1 (Homo sapiens), sequence (P53667 whole entry, looked up, the tested form may be a part): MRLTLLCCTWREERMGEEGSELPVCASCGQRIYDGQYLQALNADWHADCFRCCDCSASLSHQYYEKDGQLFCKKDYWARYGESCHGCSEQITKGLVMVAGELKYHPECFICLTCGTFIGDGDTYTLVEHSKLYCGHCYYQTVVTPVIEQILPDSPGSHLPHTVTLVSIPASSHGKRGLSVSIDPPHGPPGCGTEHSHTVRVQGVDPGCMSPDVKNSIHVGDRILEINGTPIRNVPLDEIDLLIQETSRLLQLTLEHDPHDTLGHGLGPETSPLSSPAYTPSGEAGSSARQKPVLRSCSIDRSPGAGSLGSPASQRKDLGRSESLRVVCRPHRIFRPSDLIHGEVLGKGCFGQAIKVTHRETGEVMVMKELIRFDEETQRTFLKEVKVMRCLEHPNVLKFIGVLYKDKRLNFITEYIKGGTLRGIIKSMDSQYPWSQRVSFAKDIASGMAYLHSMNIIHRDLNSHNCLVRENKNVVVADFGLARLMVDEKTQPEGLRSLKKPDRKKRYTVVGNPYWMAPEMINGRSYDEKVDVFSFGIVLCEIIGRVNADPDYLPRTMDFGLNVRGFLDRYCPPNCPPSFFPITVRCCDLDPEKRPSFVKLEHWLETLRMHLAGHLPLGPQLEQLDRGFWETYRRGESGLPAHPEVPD

PXR (NR1I2), sequence (O75469 whole entry): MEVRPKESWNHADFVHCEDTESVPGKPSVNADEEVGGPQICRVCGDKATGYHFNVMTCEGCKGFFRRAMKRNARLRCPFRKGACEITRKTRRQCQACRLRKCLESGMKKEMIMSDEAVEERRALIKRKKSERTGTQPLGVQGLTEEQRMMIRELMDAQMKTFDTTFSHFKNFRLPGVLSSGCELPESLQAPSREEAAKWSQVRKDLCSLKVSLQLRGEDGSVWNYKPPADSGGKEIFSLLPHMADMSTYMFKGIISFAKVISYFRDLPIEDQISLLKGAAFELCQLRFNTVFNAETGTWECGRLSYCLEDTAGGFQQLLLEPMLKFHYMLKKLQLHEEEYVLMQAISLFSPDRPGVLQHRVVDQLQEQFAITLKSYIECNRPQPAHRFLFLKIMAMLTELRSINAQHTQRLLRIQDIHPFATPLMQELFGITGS
Serine/threonine-protein kinase PLK2, sequence (Q9NYY3 whole entry, looked up): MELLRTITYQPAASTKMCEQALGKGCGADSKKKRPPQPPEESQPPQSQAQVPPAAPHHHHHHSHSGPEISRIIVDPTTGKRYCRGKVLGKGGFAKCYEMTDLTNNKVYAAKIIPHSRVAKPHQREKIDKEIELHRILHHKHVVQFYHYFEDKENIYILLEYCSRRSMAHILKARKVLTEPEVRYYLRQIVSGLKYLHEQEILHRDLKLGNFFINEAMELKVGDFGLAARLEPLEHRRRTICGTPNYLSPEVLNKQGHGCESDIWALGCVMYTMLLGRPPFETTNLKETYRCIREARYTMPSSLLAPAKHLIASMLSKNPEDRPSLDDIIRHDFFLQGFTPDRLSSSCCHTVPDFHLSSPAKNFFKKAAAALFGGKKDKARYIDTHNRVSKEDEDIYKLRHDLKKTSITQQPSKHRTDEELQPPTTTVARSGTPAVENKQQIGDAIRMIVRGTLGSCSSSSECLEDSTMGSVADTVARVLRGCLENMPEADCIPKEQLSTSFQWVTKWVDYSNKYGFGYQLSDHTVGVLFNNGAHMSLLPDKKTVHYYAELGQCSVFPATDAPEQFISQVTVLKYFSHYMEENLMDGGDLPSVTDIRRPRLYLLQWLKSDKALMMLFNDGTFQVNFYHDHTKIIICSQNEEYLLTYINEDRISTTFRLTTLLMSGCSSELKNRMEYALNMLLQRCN
Tyrosine-protein kinase Fyn (Homo sapiens), sequence (P06241 2-537 limits assumed): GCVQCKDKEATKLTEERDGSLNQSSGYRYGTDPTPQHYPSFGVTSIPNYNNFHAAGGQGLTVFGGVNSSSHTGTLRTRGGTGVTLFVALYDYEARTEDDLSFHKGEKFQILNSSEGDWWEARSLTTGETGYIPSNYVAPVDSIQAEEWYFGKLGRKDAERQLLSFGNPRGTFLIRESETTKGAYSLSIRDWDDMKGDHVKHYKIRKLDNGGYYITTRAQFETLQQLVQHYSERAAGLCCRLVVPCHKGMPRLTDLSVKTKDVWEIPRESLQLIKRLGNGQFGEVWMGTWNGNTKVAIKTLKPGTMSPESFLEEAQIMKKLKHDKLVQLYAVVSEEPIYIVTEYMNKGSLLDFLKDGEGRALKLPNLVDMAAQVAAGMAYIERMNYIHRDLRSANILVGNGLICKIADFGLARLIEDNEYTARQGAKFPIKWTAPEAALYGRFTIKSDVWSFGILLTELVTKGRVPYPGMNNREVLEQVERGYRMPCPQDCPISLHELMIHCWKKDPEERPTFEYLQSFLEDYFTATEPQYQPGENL

`Cc1cc([C@@H](C)Nc2ccccc2C(=O)O)c2nc(N3CCOCC3)cc(=O)n2c1` [AZD-6482] gave a % of control [1] of 99%.

In the case of `COc1cc(Nc2nc(C)cc(-c3cnn4nc(OC)ccc34)n2)cc(C(F)(F)F)c1`, the % of control [2] is reported as 81%.

Work on `CC(=O)Nc1cccc(-n2c(=O)n(C3CC3)c(=O)c3c(Nc4ccc(I)cc4F)n(C)c(=O)c(C)c32)c1` yielded a % of control [3] of 101% and a % of control [4] of 103%.

`CNC(=O)Nc1ccc(-c2nc(N3CC4CCC(C3)O4)c3cnn(C4CCC5(CC4)OCCO5)c3n2)cc1` gave a % of inhibition [5] of 0%.

In the case of `CCn1c(-c2nc3cc(C(=O)N4CCCC(N)C4)ccc3n2C)cc2ccccc21` (stereo not drawn), the XC50 (PXR (NR1I2)) is reported as over 50.1 µM.

`CN(C)CCOc1ccc(-c2nc(-c3ccncc3)c(-c3ccc4c(c3)CC/C4=N\O)[nH]2)cc1` was tested, and the % of control [6] was 100%.

With `CCN(CC)CCCCNc1ncc2cc(-c3cc(OC)cc(OC)c3)c(NC(=O)NC(C)(C)C)nc2n1` the % of control [7] was 100%.

From ChEMBL document CHEMBL5465560, “Selectivity Literature for EUbOPEN Chemogenomic Library” (2024)
